The text below walks through data of patent publication US6194441A, “Oxazolidinone derivatives and their use as antibacterial agents” (Zeneca Ltd., priority 1997, dated 2001).

The term MIC denotes the smallest concentration in the dilution series that meets the test's criterion for growth inhibition. The solubility is how much of the substance goes into solution per volume.

Molecules are shown by their SMILES. In brackets after ≈: the same amount, converted by molar mass. Structures can show the parent of a compound that is named as a salt.

One series deals with Bacillus subtilis. The series can be described thus: MIC by agar-dilution technique, B. subtilis. In kind it is cell-based. To be noted: IsoSensitest agar, inoculum 10^4 CFU/spot, 37° C., 24 hours. As for the experimental part: (§1) The following results were obtained on a standard in vitro test system. The activity is described in terms of the minimum inhibitory concentration (MIC) determined by the agar-dilution technique with an inoculum size of 10^4 CFU/spot.
(§2) The organisms were tested on a standard semi-defined susceptability test medium (IsoSensitest agar), using an inoculum of 10^4 CFU/spot and an incubation temperature of 37° C. for 24 hours. Typically, compounds are active in the range 0.01 to 128 μg/ml.

The subject of series [1] is Staphylococcus aureus Novb. Res. The series can be described thus: MIC by agar-dilution technique, S. aureus novobiocin resistant. To be noted: 24 h. In kind it is cell-based. As for the experimental part:
as §1, §2

For series [2], the system named is Coagulase Negative Staphylococci MR. The series can be described thus: MIC by agar-dilution technique, coagulase negative staphylococci MR. To be noted: IsoSensitest agar, inoculum 10^4 CFU/spot, 37° C., 24 hours, methicillin resistant. It is filed as cell-based. On the procedure: as §1, §2
Series [3] relates to Staphylococcus aureus MRQR. Briefly: MIC by agar-dilution technique, S. aureus MRQR. It is filed as cell-based. To be noted: IsoSensitest agar, inoculum 10^4 CFU/spot, 37° C., 24 hours, methicillin resistant quinolone resistant. On the procedure:
as §1, §2

The subject of series [4] is Staphylococcus aureus Oxford. The series can be described thus: MIC by agar-dilution technique, S. aureus Oxford. To be noted: IsoSensitest agar, inoculum 10^4 CFU/spot, 37° C., 24 hours, Oxford strain. It is filed as cell-based. As for the experimental part: as §1, §2
The next series deals with Enterococcus faecalis. The series can be described thus: MIC by agar-dilution technique, E. faecalis. In kind it is cell-based. As to conditions: IsoSensitest agar, inoculum 10^4 CFU/spot, 37° C., 24 hours. On the procedure:
as §1, §2

The subject of series [5] is Streptococcus pyogenes C203. The series can be described thus: MIC by agar-dilution technique, S. pyogenes C203. In kind it is cell-based. As to conditions: IsoSensitest agar, inoculum 10^4 CFU/spot, 37° C., 24 hours. As for the experimental part:
as §1, §2

In series [6] the test system is Coagulase Negative Staphylococci MS. The series can be described thus: MIC by agar-dilution technique, coagulase negative staphylococci MS. In kind it is cell-based. To be noted: IsoSensitest agar, inoculum 10^4 CFU/spot, 37° C., 24 hours, methicillin sensitive. On the procedure:
as §1, §2

The nature of a further series: Solubility in water. To be noted: dihydrochloride salt. It is filed as physicochemical.

As for `CC(=O)NC[C@H]1CN(c2ccc(-n3cnc(C=CC#N)c3)c(F)c2)C(=O)O1` [Example 2], the minimum inhibitory concentration (MIC) in the series with Bacillus subtilis is 0.25 µg/mL (≈ 0.677 µM); in series [1] it was 0.25 µg/mL (≈ 0.677 µM); in series [2], 0.25 µg/mL (≈ 0.677 µM); in series [3], 1 µg/mL (≈ 2.71 µM); in [4], 0.125 µg/mL (≈ 0.338 µM); in the series on Enterococcus faecalis, 0.25 µg/mL (≈ 0.677 µM). For the same molecule, the minimal inhibitory concentration (MIC) in series [5] was determined as 0.125 µg/mL (≈ 0.338 µM); in series [6], 0.06 µg/mL (≈ 0.162 µM).

As to `CC(=O)NC[C@H]1CN(c2ccc(-n3cnc(/C=C/c4ccccn4)c3)c(F)c2)C(=O)O1` [Example 11 dihydrochloride salt, N-[(5S)-3-(3-Fluoro-4-(4-(E-2-(Pyrid-2-yl)ethenyl)imidazol-1-yl)phenyl)-2-oxooxazolidin-5-ylmethyl]acetamide], in the series “Solubility in water”, the solubility was approximately 10000 µg/mL.
